Laboratory results published in patent US20230149409A1, “TREATMENT OF HUMAN PAPILLOMAVIRUS-ASSOCIATED CANCERS BY PD-L1 INHIBITORS” (priority 2021, published 2023).

Assays:
[1] = test system: PD-L1 (U2OS/PD-L1 cells, Jurkat-PD-1-SHP cells); assay: Src Homology Region 2 Domain-containing Phosphatase (SHP) assay; assay type: cell-based; settings: Homo sapiens; U2OS/PD-L1 + Jurkat-PD-1-SHP cells, 2 hours
In short: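 U2OS/PD-L1 cells and Jurkat-PD-1-SHP cells (5,000 each per well) were co-incubated with compound in RPMI1640/1% FBS for 2 h at 37° C, with final DMSO 0.05%. PathHunter chemiluminescence was read after 1 h at room temperature. IC50 was fitted from percent of DMSO-control activity against log concentration.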

[2] = target: T1, PD-L1 on CD14+ cells in human whole blood (Homo sapiens, UniProt Q9NZQ7); assay: PD-L1 whole blood internalization assay; assay type: cell-based; settings: 1 ng/mL interferon γ, CD14+ gated, 24 hour
T1 construct: Cells were gated on CD14+ (BD Biosciences) and PD-L1 expression determined by mean fluorescence intensity; host or cells: CD14+ cells in normal human whole blood, stimulated with human interferon gamma
T1 sequence (Q9NZQ7 19-290): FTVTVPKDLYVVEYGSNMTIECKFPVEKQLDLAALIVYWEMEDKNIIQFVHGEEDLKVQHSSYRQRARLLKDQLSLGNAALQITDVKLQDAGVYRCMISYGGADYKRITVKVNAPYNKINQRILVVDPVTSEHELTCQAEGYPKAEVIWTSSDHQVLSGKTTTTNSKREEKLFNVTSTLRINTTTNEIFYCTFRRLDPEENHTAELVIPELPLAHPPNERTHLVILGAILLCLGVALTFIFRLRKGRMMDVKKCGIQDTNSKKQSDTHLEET
In short: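 Normal human whole blood exposed to compound concentration range plus 1 ng/mL IFN-γ for 18–20 h at 37 °C, then stained for PD-L1 and CD14, red cells lysed/fixed. PD-L1 MFI measured on CD14+ gated cells by flow cytometry; IC50 from percent inhibition versus log concentration fit.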

[3] = test system: PD-L1 (PD-L1 aAPC/CHO-K1 cells, Jurkat-PD-1-NFAT effector cells); assay: Nuclear Factor of Activated T-cells (NFAT) assay; assay type: cell-based; settings: Cricetulus griseus; PD-L1 aAPC/CHO-K1 + Jurkat-PD-1-NFAT cells, 24 hours
In short: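 PD-L1 aAPC/CHO-K1 cells (8000/well) were treated with compound (0.4% DMSO, 2 µM final), then co-cultured with Jurkat-PD-1-NFAT effector cells for 24 hours at 37° C. NFAT luciferase luminescence was normalized to DMSO as fold induction. Maximum induction is relative to the control compound's top FOI; EC50 is from curve fitting.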

[4] = test system: select advanced solid tumors (HPV+ carcinomas); assay: Phase 1 open-label clinical trial of Compound 30; assay type: in vivo, human; design: key: complete response (CR); partial response (PR); stable disease (SD); progressive disease (PD)
Excerpt: Two open-label, nonrandomized, global multicenter Phase 1 studies in participants with select advanced solid tumors are being conducted for Compounds 24 and 30 in Table 1 supra. In addition to the primary endpoint of determining safety, tolerability, PAD and/or maximum tolerated dose (MTD) of each compound, the studies are exploring preliminary efficacy (complete response (CR), partial response (PR), stable disease (SD), or progressive disease (PD)) in participants with select advanced cancers, including virally mediated tumors such as HPV+ carcinomas. HPV+ tumors can be determined by a local laboratory using p16 IHC, polymerase chain reaction methods, or other locally-available method to detect HPV. Results for patients having solid tumors whose HPV+ status was confirmed, suspected or negative are shown below for Compound 24 and Compound 30 in Tables 4 and 5, respectively.

## Cc1c(Nc2nccc3cc(CN4CC[C@@H](O)C4)cnc23)cccc1-c1cccc(-c2nc3cc(CN4CC[C@@H](C(=O)O)C4)cc(C#N)c3o2)c1C [Compound 1, (R)-1-((7-cyano-2-(3′-(3-(((R)-3-hydroxypyrrolidin-1-yl)methyl)-1,7-naphthyridin-8-ylamino)-2,2′-dimethylbiphenyl-3-yl)benzo[d]oxazol-5-yl)methyl)pyrrolidine-3-carboxylic acid]
[1]
  IC50: < 0.01 µM
[2]
  IC50: < 0.5 µM
[3]
  EC50: < 0.1 µM

## Cn1c(C(=O)Nc2cccc(-c3cccc(NC(=O)c4nc5c(n4C)CCN(CCC46CCC(C(=O)O)(CC4)C6)C5)c3Cl)c2Cl)nc2c1CCN(CCC13CCC(C(=O)O)(CC1)C3)C2 [Compound 30, 4,4′-(((((2,2′-dichloro-[1,1′-bipheiryl]-3,3′-diyl)bis(azanediyl))bis(carbonyl))bis(1-methyl-1,4,6,7-tetrahydro-5H-imidazo[4,5-c]pyridine-2,5-diyl))bis(ethane-2,1-diyl))bis(bicyclo[2.2.1]heptane-1-carboxylic acid)]
[1]
  IC50: < 0.01 µM
[2]
  IC50: < 0.1 µM
[4]; Patient 1, 300 mg BID, Cervical cancer (SCC), p16 positive
  Best Overall Response: PR
[4]; Patient 2, 300 mg BID, Nasopharyngeal (SCC), p16 negative
  Best Overall Response: SD
[4]; Patient 3, 300 mg BID, Cervical cancer (SCC), p16 positive
  Best Overall Response: SD
[4]; Patient 4, 400 mg BID, Cervical cancer (SCC), p16 positive
  Best Overall Response: PD
[4]; Patient 5, 400 mg BID, Nasopharyngeal (SCC), HPV/p16 status Not determined
  Best Overall Response: SD
[4]; Patient 6, 400 mg BID, Cervical cancer (SCC), Positive due to HSIL
  Best Overall Response: SD
[4]; Patient 7, 400 mg BID, Acinic cell parotid gland carcinoma, HPV/p16 status Not determined
  Best Overall Response: PD
[4]; Patient 8, 400 mg BID, Cervical cancer (adenosquamous), p16 positive
  Best Overall Response: PR
[4]; Patient 9, 600 mg QD, Cervical cancer (SCC), p16 positive
  Best Overall Response: PD
[4]; Patient 10, 600 mg QD, Cervical cancer (SCC and adenocarcinoma), HPV/p16 status Not determined
  Best Overall Response: PD
[4]; Patient 11, 600 mg BID, Cervical cancer (SCC), p16 positive
  Best Overall Response: PD
[4]; Patient 12, 600 mg BID, Penile cancer (SCC), p16 positive
  Best Overall Response: SD
[4]; Patient 13, 200 mg BID, Anal canal (SCC), HPV/p16 status Not determined
  Best Overall Response: PD
[3]
  EC50: < 0.1 µM
